Structures can show the parent of a compound that is named as a salt.
Tested on: KMS.12.BM cells
Assay: KMS.12.BM Cell Viability Assay (Example B1)
Assay type: cell-based, human
Details: Homo sapiens, 72 h, 3 days, Cell Titer-GLO, read-out: KMS cellular IC50
Summary of the method: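 KMS.12.BM human myeloma cells, 5000 cells/well in RPMI with 10% FBS, exposed to a compound concentration range for 3 days. Viable cells measured by ATP-based Cell Titer-GLO luminescence after 10 min at room temperature.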

| SMILES | IC50 [nM] |
| --- | --- |
| CC(=O)N1CCN(c2nc3ccc(-c4c(C)noc4C)c4c3n2[C@@H](c2ccccn2)CO4)CC1 [Example 224, (4S)-2-(4-acetylpiperazin-1-yl)-7-(3,5-dimethylisoxazol-4-yl)-4-pyridin-2-yl-4,5-dihydroimidazo[1,5,4-de][1,4]benzoxazine] | < 1000 |
| CCC(=O)N1CCN(c2nc3ccc(-c4c(C)noc4C)c4c3n2[C@@H](c2ccccn2)CO4)CC1 [Example 225, (4S)-7-(3,5-dimethylisoxazol-4-yl)-2-(4-propionylpiperazin-1-yl)-4-pyridin-2-yl-4,5-dihydroimidazo[1,5,4-de][1,4]benzoxazine] | < 1000 |
| CCS(=O)(=O)N1CCN(c2nc3ccc(-c4c(C)noc4C)c4c3n2[C@@H](c2ccccn2)CO4)CC1 [Example 226, (4S)-7-(3,5-dimethylisoxazol-4-yl)-2-[4-(ethylsulfonyl)piperazin-1-yl]-4-pyridin-2-yl-4,5-dihydroimidazo[1,5,4-de][1,4]benzoxazine] | < 1000 |
| Cc1noc(C)c1-c1ccc2nc(N3CCN(CC(=O)N4CCCC4)CC3)n3c2c1OC[C@@H]3c1ccccn1 [Example 228, (4S)-7-(3,5-dimethylisoxazol-4-yl)-2-[4-(2-oxo-2-pyrrolidin-1-ylethyl)piperazin-1-yl]-4-pyridin-2-yl-4,5-dihydroimidazo[1,5,4-de][1,4]benzoxazine] | < 1000 |
| Cc1noc(C)c1-c1ccc2nc(N3CCN(S(N)(=O)=O)CC3)n3c2c1OC[C@@H]3c1ccccn1 [Example 229, 4-[(4S)-7-(3,5-dimethylisoxazol-4-yl)-4-pyridin-2-yl-4,5-dihydroimidazo[1,5,4-de][1,4]benzoxazin-2-yl]piperazine-1-sulfonamide] | < 1000 |
| Cc1noc(C)c1-c1ccc2nc(N3CC(N)C3)n3c2c1OC[C@@H]3c1ccccn1 [Example 230, 1-[(4S)-7-(3,5-dimethylisoxazol-4-yl)-4-pyridin-2-yl-4,5-dihydroimidazo[1,5,4-de][1,4]benzoxazin-2-yl]azetidin-3-amine trihydrochloride] | < 1000 |
| CC(=O)NC1CN(c2nc3ccc(-c4c(C)noc4C)c4c3n2[C@@H](c2ccccn2)CO4)C1 [Example 231, N-{1-[(4S)-7-(3,5-dimethylisoxazol-4-yl)-4-pyridin-2-yl-4,5-dihydroimidazo[1,5,4-de][1,4]benzoxazin-2-yl]azetidin-3-yl}acetamide] | < 1000 |
| CCC(=O)NC1CN(c2nc3ccc(-c4c(C)noc4C)c4c3n2[C@@H](c2ccccn2)CO4)C1 [Example 232, N-{1-[(4S)-7-(3,5-dimethylisoxazol-4-yl)-4-pyridin-2-yl-4,5-dihydroimidazo[1,5,4-de][1,4]benzoxazin-2-yl]azetidin-3-yl}propanamide] | < 1000 |
| Cc1noc(C)c1-c1ccc2nc(N3CC(NC(=O)C(C)C)C3)n3c2c1OC[C@@H]3c1ccccn1 [Example 233, N-{1-[(4S)-7-(3,5-dimethylisoxazol-4-yl)-4-pyridin-2-yl-4,5-dihydroimidazo[1,5,4-de][1,4]benzoxazin-2-yl]azetidin-3-yl}-2-methylpropanamide] | < 1000 |
| COCC(=O)NC1CN(c2nc3ccc(-c4c(C)noc4C)c4c3n2[C@@H](c2ccccn2)CO4)C1 [Example 234, N-{1-[(4S)-7-(3,5-dimethylisoxazol-4-yl)-4-pyridin-2-yl-4,5-dihydroimidazo[1,5,4-de][1,4]benzoxazin-2-yl]azetidin-3-yl}-2-methoxyacetamide] | < 1000 |
| Cc1noc(C)c1-c1ccc2nc(N3CC(NC(=O)C4CC4)C3)n3c2c1OC[C@@H]3c1ccccn1 [Example 235, N-{1-[(4S)-7-(3,5-dimethylisoxazol-4-yl)-4-pyridin-2-yl-4,5-dihydroimidazo[1,5,4-de][1,4]benzoxazin-2-yl]azetidin-3-yl}cyclopropanecarboxamide] | < 1000 |
| Cc1noc(C)c1-c1ccc2nc(N3CC(NC(=O)C4CCC4)C3)n3c2c1OC[C@@H]3c1ccccn1 [Example 236, N-{1-[(4S)-7-(3,5-dimethylisoxazol-4-yl)-4-pyridin-2-yl-4,5-dihydroimidazo[1,5,4-de][1,4]benzoxazin-2-yl]azetidin-3-yl}cyclobutanecarboxamide] | < 1000 |
| Cc1noc(C)c1-c1ccc2nc(N3CC(NS(C)(=O)=O)C3)n3c2c1OC[C@@H]3c1ccccn1 [Example 237, N-{1-[(4S)-7-(3,5-dimethylisoxazol-4-yl)-4-pyridin-2-yl-4,5-dihydroimidazo[1,5,4-de][1,4]benzoxazin-2-yl]azetidin-3-yl}methanesulfonamide] | < 1000 |
| CCS(=O)(=O)NC1CN(c2nc3ccc(-c4c(C)noc4C)c4c3n2[C@@H](c2ccccn2)CO4)C1 [Example 238, N-{1-[(4S)-7-(3,5-dimethylisoxazol-4-yl)-4-pyridin-2-yl-4,5-dihydroimidazo[1,5,4-de][1,4]benzoxazin-2-yl]azetidin-3-yl}ethanesulfonamide] | < 1000 |
| Cc1noc(C)c1-c1ccc2nc(N3CC(NS(=O)(=O)C(C)C)C3)n3c2c1OC[C@@H]3c1ccccn1 [Example 239, N-{1-[(4S)-7-(3,5-dimethylisoxazol-4-yl)-4-pyridin-2-yl-4,5-dihydroimidazo[1,5,4-de][1,4]benzoxazin-2-yl]azetidin-3-yl}propane-2-sulfonamide] | < 1000 |
| Cc1noc(C)c1-c1ccc2nc(N3CCC(NS(C)(=O)=O)CC3)n3c2c1OC[C@@H]3c1ccccn1 [Example 240, N-{1-[(4S)-7-(3,5-dimethylisoxazol-4-yl)-4-pyridin-2-yl-4,5-dihydroimidazo[1,5,4-de][1,4]benzoxazin-2-yl]piperidin-4-yl}methanesulfonamide] | < 1000 |
| COCC(=O)NC1CCN(c2nc3ccc(-c4c(C)noc4C)c4c3n2[C@@H](c2ccccn2)CO4)CC1 [Example 241, N-{1-[(4S)-7-(3,5-dimethylisoxazol-4-yl)-4-pyridin-2-yl-4,5-dihydroimidazo[1,5,4-de][1,4]benzoxazin-2-yl]piperidin-4-yl}-2-methoxyacetamide] | < 1000 |
| Cc1noc(C)c1-c1ccc2nc(N3CCC(NC(=O)C(F)(F)F)CC3)n3c2c1OC[C@@H]3c1ccccn1 [Example 242, N-{1-[(4S)-7-(3,5-dimethylisoxazol-4-yl)-4-pyridin-2-yl-4,5-dihydroimidazo[1,5,4-de][1,4]benzoxazin-2-yl]piperidin-4-yl}-2,2,2-trifluoroacetamide] | < 1000 |
| CCC(=O)NC1CCN(c2nc3ccc(-c4c(C)noc4C)c4c3n2[C@@H](c2ccccn2)CO4)CC1 [Example 243, N-{1-[(4S)-7-(3,5-dimethylisoxazol-4-yl)-4-pyridin-2-yl-4,5-dihydroimidazo[1,5,4-de][1,4]benzoxazin-2-yl]piperidin-4-yl}propanamide] | < 1000 |
| Cc1noc(C)c1-c1ccc2nc(N3CCC(NC(=O)C(C)C)CC3)n3c2c1OCC3c1ccccn1 (stereo not drawn) [Example 244] | < 1000 |
| CCC(=O)N1CCCN(c2nc3ccc(-c4c(C)noc4C)c4c3n2[C@@H](c2ccccn2)CO4)CC1 [Example 246, (4S)-7-(3,5-dimethylisoxazol-4-yl)-2-(4-propionyl-1,4-diazepan-1-yl)-4-pyridin-2-yl-4,5-dihydroimidazo[1,5,4-de][1,4]benzoxazine] | < 1000 |
